Data reported in US6358883B1, “Pesticidal and parasiticidal use of 1-aryl-1-(substituted thio, sulfinyl and sulfonyl)-2-nitroethane compounds” (American Cyanamid Company, priority 1998, dated 2002).

Legend:
Format in all cases: in vivo
[1] = system: Diabrotica undecimpunctata howardi, eggs-southern corn rootworm (SCR-Eggs); test: Southern corn rootworm eggs (SCR-Eggs) treated diet test; design: key: 0 = no effect; 1 = 10-25% kill; 2 = 26-35% kill; 3 = 36-45% kill; 4 = 46-55% kill; 5 = 56-65% kill; 6 = 66-75% kill; 7 = 76-85% kill; 8 = 86-99% kill; 9 = 100% kill; settings: mortality after 7 days
Procedure: Test solutions are prepared by dissolving the test compound in a 35% acetone in water mixture to give a concentration of 10,000 ppm. Subsequent dilutions are made with water as needed. Spodoptera eridania, Eggs-southern Armyworm and Diabrotica undecimpunctata howardi, Eggs-southern Corn Rootworm (SAW-Eggs) and (SCR-Eggs) Wells containing artificial diet are treated with the test solutions and dried. The appropriate insect eggs are then placed in the wells. The wells are covered with vented, adhesive, clear plastic covers. After 7 days, mortality counts are made. [table]

[2] = system: Diabrotica virgifera virgifera Leconte, 2nd instar western corn rootworm (WCR); test: Western corn rootworm (WCR) soil test; design: key: 0 = no effect; 1 = 10-25% kill; 2 = 26-35% kill; 3 = 36-45% kill; 4 = 46-55% kill; 5 = 56-65% kill; 6 = 66-75% kill; 7 = 76-85% kill; 8 = 86-99% kill; 9 = 100% kill
Procedure: Test solutions are prepared by dissolving the test compound in a 35% acetone in water mixture to give a concentration of 10,000 ppm. Subsequent dilutions are made with water as needed. Diabrotica virgifera virgifera Leconte, 2nd Instar Western Corn Rootworm (WCR) One cc of fine talc is placed in a 30 mL wide-mouth screw-top glass jar. One mL of the appropriate acetone test solution is pipetted onto the talc so as to provide 1.25 mg of active ingredient per jar. The jars are set under a gentle air flow until the acetone is evaporated. The dried talc is loosened, 1 cc of millet seed is added to serve as food for the insects and 25 mL of moist soil is added to each jar. The jar is capped and the contents thoroughly mixed mechanically. Following this, ten 2nd instar rootworms are added to each jar and the jars are loosely capped to allow air exchange for the larvae. The treatments are held for 5 days when mortality counts are made. Missing larvae are presumed dead, since they decompose rapidly and cannot be found. The concentrations of active ingredient used in this test correspond approximately to 50 kg/ha. [table]

[3] = system: Tetranychus urticae (OP-resistant strain), 2-spotted spider mite (TSM); test: 2-spotted spider mite (TSM) plant dip test; design: key: 0 = no effect; 1 = 10-25% kill; 2 = 26-35% kill; 3 = 36-45% kill; 4 = 46-55% kill; 5 = 56-65% kill; 6 = 66-75% kill; 7 = 76-85% kill; 8 = 86-99% kill; 9 = 100% kill; settings: mortality after 2 days
Procedure: (§1) Test solutions are prepared by dissolving the test compound in a 35% acetone in water mixture to give a concentration of 10,000 ppm. Subsequent dilutions are made with water as needed.
Tetranychus urticae (OP-resistant strain), 2-spotted Spider Mite (TSM)
Sieva lima bean plants with primary leaves expanded to 7-8 cm are selected and cut back to one plant per pot. A small piece is cut from an infested leaf taken from the main colony and placed on each leaf of the test plants. This is done about 2 hours before treatment to allow the mites to move over to the test plant to lay eggs. The size of the cut, infested leaf is varied to obtain about 100 mites per leaf. At the time of test treatment, the piece of leaf used to transfer the mites is removed and discarded. The newly-infested plants are dipped in the test solution for 3 seconds with agitation and set in the hood to dry. After 2 days, one leaf is removed and mortality counts are made.

[4] = system: M. incognita (Root Knot Nematode) larvae; test: Evaluation of test compounds against M. incognita larvae in microtiter plate wells (movement score); settings: larvae scored for movement after 20-24 hours; note: key: A score of '9' indicates inactive worms with a straight, sticklike morphology; A score of '8' indicates inactive worms with a limp, curled or curved morphology; A score of '7' indicates dead/paralyzed worms after 72 hours
Procedure: Evaluation of Test Compounds Against M. incognita (Root Knot Nematode)
Newly emerged M. incognita larvae are suspended in S Medium (buffered salt solution) to a concentration of 50-65 worms per 50 μl. 50 μl of the worm suspension are pipetted into microtiter plate wells containing the test compounds. The plates are then covered with plactic plate sealers to reduce loss of volume by evaporation. After 20-24 hours of incubation, the larvae are scored for movement. Wells containing obviously dead/paralyzed larvae are scored as positive. […] A score of “7” indicates dead/paralyzed worms after […].

[5] = system: Spodoptera eridania, 2nd instar larvae, southern armyworm (SAW); test: Southern armyworm (SAW) leaf dip test; design: key: 0 = no effect; 1 = 10-25% kill; 2 = 26-35% kill; 3 = 36-45% kill; 4 = 46-55% kill; 5 = 56-65% kill; 6 = 66-75% kill; 7 = 76-85% kill; 8 = 86-99% kill; 9 = 100% kill
Procedure: as §1
Spodoptera eridania, 2nd Instar Larvae, Southern Armyworm (SAW)
A Sieva lima bean leaf expanded to 7-8 cm in length is dipped in the test solution with agitation for 3 seconds and allowed to dry in a hood. The leaf is then placed in a 100×10 mm petri dish containing a damp filter paper on the bottom and ten 2nd instar caterpillars. At 5 days, observations are made of mortality, reduced feeding, or any interference with normal molting.

[6] = system: Aphis gossypii, cotton aphid (CA); test: Cotton aphid (CA) cotyledon dip test; design: key: 0 = no effect; 1 = 10-25% kill; 2 = 26-35% kill; 3 = 36-45% kill; 4 = 46-55% kill; 5 = 56-65% kill; 6 = 66-75% kill; 7 = 76-85% kill; 8 = 86-99% kill; 9 = 100% kill; settings: mortality after 5 days
Procedure: Test solutions are prepared by dissolving the test compound in a 35% acetone in water mixture to give a concentration of 10,000 ppm. Subsequent dilutions are made with water as needed. Aphis gossypii, Cotton Aphid (CA) Cotton plants at the cotyledon stage are selected and cut back to one plant per pot. A heavily infested leaf is taken from the main colony and placed on top of each cotyledon. The aphids are allowed to transfer to the host plant overnight. At the time of test treatment, the leaf used to transfer the aphids is removed and discarded. The cotyledons are dipped in the test solution and allowed to dry. After 5 days, mortality counts are made. [table]

[7] = system: C. elegans (Bristol strain); test: Evaluation of test compounds against C. elegans (motility, 96-well plate); design: key: 9=complete kill in 4 hours; 8=complete kill in 24 hours; 7=markedly reduced motility in approximately 95% of worms in 24 hours; 0=normal motility, same as controls; settings: motility at 4 and 24 hours
Procedure: Evaluation of Test Compounds Against C. elegans Cultures of C. elegans (Bristol strain from J. Lewis) are maintained on E. coli lawns on NG Agar Plates at 20° C. New cultures are established weekly. Nematodes for testing are washed from cultures using Na buffer. Compounds are dissolved in 80% acetone. The test material is micropipetted (25 μl) into a single well of a 96-well sterile tissue culture plate and the solvent allowed to evaporate. A freshly prepared volume (50 μl) of C. elegans in Na buffer is micropipetted into each treated well and several control wells per plate. Plates are incubated at 20° C. Observations for efficacy are made under a dissecting microscope at 4 and 24 hours post-immersion. Immediately prior to reading the plate, it is gently tapped to stimulate the movement of the worms. Activity is judged subjectively, but semi-quantitatively, based on the drug effects on motility of the adults and larvae.

SMILES | SCR Eggs (1000 ppm) rating [1] | WCR (50 ppm) rating [2] | TSM (300 ppm) rating [3] | M. incognita (150 ppm) score [4] | SAW (300 ppm) rating [5] | CA (300 ppm) rating [6] | Rating Against C. elegans (150 ppm) [7]
CCOC(=O)CSC(C[N+](=O)[O-])c1ccccc1F (stereo not shown) [Example 40] | 0 | 9 (9 = 100% kill) | 0 | 9 | 3 (3 = 36-45% kill) | 0 | 8
COC(=O)CSC(C[N+](=O)[O-])c1ccccc1F (stereo not shown) [Example 39] | 0 | 8 (8 = 86-99% kill) | 0 | 9 | 4 (4 = 46-55% kill) | 0 | 9
C=CCSC(C[N+](=O)[O-])c1ccc(C(C)C)cc1 (stereo not shown) [Example 38] | 9 (9 = 100% kill) | 0 | 0 | 0 | 0 | 0 | 0
CCCCOC(=O)CSC(C[N+](=O)[O-])c1ccccc1F (stereo not shown) [Example 41] | 0 | 9 (9 = 100% kill) | 0 | 9 | 1 (1 = 10-25% kill) | 0 | 7
C=CCSC(C[N+](=O)[O-])c1ccccc1Cl (racemic) [Example 95] | 0 | 4 (4 = 46-55% kill) | 0 | 0 | 0 | 0 | 0
CCCCOC(=O)CSC(C[N+](=O)[O-])c1ccccc1Cl (stereo not shown) [Example 90] | 0 | 0 | 3 (3 = 36-45% kill) | 8 | 0 | 0 | 7
CC(C)CCCCCOC(=O)CSC(C[N+](=O)[O-])c1ccccc1Cl (stereo not shown) [Example 91] | 0 | 0 | 0 | 0 | 0 | 0 | 0
CC(C)c1ccc(C(C[N+](=O)[O-])SCC(=O)O)cc1 (stereo not shown) [Example 66] | – | 8 (8 = 86-99% kill) | 0 | 9 | 0 | 0 | 9
